What was measured:
HCV NS5B = biological target: T1, HCV NS5B (Hepatitis C virus genotype 1b, UniProt Q9WMX2); experiment: HCV NS5B RdRp enzyme assay (preincubation protocol); format: biochemical; details: HCV NS5B RdRp genotype 1b
T1 construct: The protein was expressed with an 18 amino acid C-terminal truncation to enhance the solubility; made in house; host or cells: E. coli BL21(DE3)
Protocol: HCV NS5B RdRp cloning, expression, and purification. The cDNA encoding the NS5B protein of HCV, genotype 1b, was cloned into the pET21a expression vector. The protein was expressed with an 18 amino acid C-terminal truncation to enhance the solubility. The E. coli competent cell line BL21(DE3) was used for expression of the protein. Cultures were grown at 37° C. for ˜4 hours until the cultures reached an optical density of 2.0 at 600 nm. The cultures were cooled to 20° C. and induced with 1 mM IPTG. Fresh ampicillin was added to a final concentration of 50 μg/ml and the cells were grown overnight at 20° C.
Cell pellets (3 L) were lysed for purification to yield 15-24 mgs of purified NS5B. The lysis buffer consisted of 20 mM Tris-HCl, pH 7.4, 500 mM NaCl, 0.5% triton X-100, 1 mM DTT, 1 mM EDTA, 20% glycerol, 0.5 mg/ml lysozyme, 10 mM MgCl2, 15 ug/ml deoxyribonuclease I, and Complete TM protease inhibitor tablets (Roche). After addition of the lysis buffer, frozen cell pellets were resuspended using a tissue homogenizer. To reduce the viscosity of the sample, aliquots of the lysate were sonicated on ice using a microtip attached to a Branson sonicator. The sonicated lysate was centrifuged at 100,000×g for 1 hr at 4° C. and filtered through a 0.2 μm filter unit (Corning).
The protein was purified using three sequential chromatography steps: Heparin sepharose CL-6B, polyU sepharose 4B, and Hitrap SP sepharose (Pharmacia). The chromatography buffers were identical to the lysis buffer but contained no lysozyme, deoxyribonuclease I, MgCl2 or protease inhibitor and the NaCl concentration of the buffer was adjusted according to the requirements for charging the protein onto the column. Each column was eluted with a NaCl gradient which varied in length from 5-50 column volumes depending on the column type. After the final chromatography step, the resulting purity of the enzyme is >90% based on SDS-PAGE analysis. The enzyme was aliquoted and stored at −80° C.
Standard HCV NS5B RdRp enzyme assay. HCV RdRp genotype 1b assays were run in a final volume of 60 μl in 96 well plates (Costar 3912 H. The assay buffer is composed of 20 mM Hepes, pH 7.5, 2.5 mM KCl, 2.5 mM MgCl2, 1 mM DTT, 1.6 U RNAse inhibitor (Promega N2515), 0.1 mg/ml BSA (Promega R3961), and 2% glycerol. All compounds were serially diluted (3-fold) in DMSO and diluted further in water such that the final concentration of DMSO in the assay was 2%. HCV RdRp genotype 1b enzyme was used at a final concentration of 28 nM. A polyA template was used at 6 nM, and a biotinylated oligo-dT12 primer was used at 180 nM final concentration. Template was obtained commercially (Amersham 27-4110). Biotinylated primer was prepared by Sigma Genosys. 3H-UTP was used at 0.6 μCi (0.29 μM total UTP). Reactions were initiated by the addition of enzyme, incubated at 30° C. for 60 min, and stopped by adding 25 μl of 50 mM EDTA containing SPA beads (4 μg/μl, Amersham RPNQ 0007 H. Plates were read on a Packard Top Count NXT after >1 hr incubation at room temperature.
Modified HCV NS5B RdRp enzyme assay. A modified enzyme assay was performed essentially as described for the standard enzyme assay except for the following: The biotinylated oligo dT12 primer was precaptured on streptavidin-coated SPA beads by mixing primer and beads in assay buffer and incubating at room temperature for one hour. Unbound primer was removed after centrifugation. The primer-bound beads were resuspended in 20 mM Hepes buffer, pH 7.5 and used in the assay at final concentrations of 20 nM primer and 0.67 μg/μl beads. Order of addition in the assay: enzyme (14 nM) was added to diluted compound followed by the addition of a mixture of template (0.2 nM), 3H-UTP (0.6 μCi, 0.29 μM), and primer-bound beads, to initiate the reaction; concentrations given are final. Reactions were allowed to proceed for 4 hours at 30° C.
IC50 values for compounds were determined using seven different [I]. […]

HCV replicon cells = experiment: HCV replicon FRET assay; format: cell-based; details: Hepatitis C virus
From the text: FRET Assay Preparation. To perform the HCV FRET screening assay, 96-well cell culture plates were used. The FRET peptide (Anaspec, Inc.) (Taliani et al., Anal Biochem. 1996, 240, 60-67) contains a fluorescence donor, EDANS, near one end of the peptide and an acceptor, DABCYL, near the other end. The fluorescence of the peptide is quenched by […] resonance energy transfer (RET) between the donor and the acceptor, but as the NS3 protease cleaves the peptide the products are released from RET quenching and the fluorescence of the donor becomes apparent. The assay reagent was made as follows: 5× cell Luciferase cell culture lysis reagent from Promega (#E153A) diluted to 1× with dH2O, NaCl added to 150 mM final, the FRET peptide diluted to 20 μM final from a 2 mM stock.
To prepare plates, HCV replicon cells, with or without a Renilla luciferase reporter gene, were trypsinized and placed into each well of a 96-well plate with titrated test compounds added in columns 3 through 12; columns 1 and 2 contained a control compound (HCV protease inhibitor), and the bottom row contained cells without compound. The plates were then placed in a CO2 incubator at 37° C.
Assays. Subsequent to addition of the test compounds described above (FRET Assay Preparation), at various times the plate was removed and Alamar blue solution (Trek Diagnostics, #00-100) was added per well as a measure of cellular toxicity. After reading in a Cytoflour 4000 instrument (PE Biosystems), plates were rinsed with PBS and then used for FRET assay by the addition of 30 ul of the FRET peptide assay reagent described above (FRET Assay Preparation) per well. The plate was then placed into the Cytoflour 4000 instrument which had been set to 340 excite/490 emission, automatic mode for 20 cycles and the plate read in a kinetic mode. Typically, the signal to noise using an endpoint analysis after the reads was at least three-fold. Alternatively, after Alamar blue reading, plates were rinsed with PBS, 50 ul of DMEM (high glucose) without phenol red was added and plates were then used for luciferase assay using the Promega Dual-Glo Luciferase Assay System.
Compound analysis was determined by quantification of the relative HCV replicon inhibition and the relative cytotoxicity values. To calculate cytoxicity values, the average Alamar Blue fluorescence signals from the control wells were set as 100% non-toxic. The individual signals in each of the compound test wells were then divided by the average control signal and multiplied by 100% to determine […]. To calculate the HCV replicon inhibition values, an average background value was obtained from the two wells containing the highest amount of HCV protease inhibitor at the end of the assay period. These numbers were similar to those obtained from naïve Huh-7 cells.
The background numbers were then subtracted from the average signal obtained from the control wells and this number was used as 100% activity. The individual signals in each of the compound test wells were then divided by the averaged control values after background subtraction and multiplied by 100% to determine percent activity. EC50 values for a protease inhibitor titration were calculated as the concentration which caused a 50% reduction in FRET or luciferase activity. The two numbers generated for the compound plate, percent cytoxicity and percent activity were used to determine compounds of interest for further analysis.

T1 sequence (Q9WMX2 2420-2992): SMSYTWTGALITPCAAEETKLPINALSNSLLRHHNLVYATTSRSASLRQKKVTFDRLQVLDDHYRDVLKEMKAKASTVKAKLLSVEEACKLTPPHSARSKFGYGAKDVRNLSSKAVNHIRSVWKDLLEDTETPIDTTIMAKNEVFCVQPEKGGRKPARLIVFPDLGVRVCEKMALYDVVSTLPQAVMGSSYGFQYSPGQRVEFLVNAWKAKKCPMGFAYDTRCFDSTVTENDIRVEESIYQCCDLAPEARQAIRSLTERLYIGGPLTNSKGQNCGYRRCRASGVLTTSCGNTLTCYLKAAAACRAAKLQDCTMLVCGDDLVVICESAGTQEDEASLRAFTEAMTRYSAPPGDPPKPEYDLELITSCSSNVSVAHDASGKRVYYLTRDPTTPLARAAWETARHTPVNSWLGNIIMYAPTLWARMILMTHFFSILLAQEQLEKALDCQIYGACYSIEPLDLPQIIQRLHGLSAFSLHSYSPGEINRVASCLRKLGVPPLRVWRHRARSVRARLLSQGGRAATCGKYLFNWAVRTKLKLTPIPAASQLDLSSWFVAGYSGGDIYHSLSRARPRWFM

Structure (SMILES) | IC50 (HCV NS5B) [nM] | EC50 (HCV replicon cells) [nM]
COC(=O)c1ccc2c(C3CCCCC3)c3n(c2c1)CC(c1ncc(CCC(=O)N2CCOCC2)o1)=Cc1ccccc1-3 [Example 35] | > 500 | > 500
COC(=O)c1ccc2c(C3CCCCC3)c3n(c2c1)CC(c1n[nH]c(CC2CCOCC2)n1)=Cc1ccccc1-3 [Example 40, 13-cyclohexyl-6-[5-[(tetrahydro-2H-pyran-4-yl)methyl]-1H-1,2,4-triazol-3-yl]-7H-indolo[2,1-a][2]benzazepine-10-carboxylic acid, methyl ester] | > 500 | > 500
O=C(O)c1ccc2c(C3CCCCC3)c3n(c2c1)CC(c1nnn(CCO)n1)=Cc1ccccc1-3 [Example 5, 13-cyclohexyl-6-[2-(2-hydroxyethyl)-2H-tetrazol-5-yl]-7H-indolo[2,1-a][2]benzazepine-10-carboxylic acid] | > 500 | > 500
COC(=O)c1ccc2c(C3CCCCC3)c3n(c2c1)CC(c1ncc(CCC(=O)N2CCOCC2)o1)=Cc1cc(OC)ccc1-3 [Example 48, Methyl 13-cyclohexyl-3-methoxy-6-(5-(3-(4-morpholinyl)-3-oxopropyl)-1,3-oxazol-2-yl)-7H-indolo[2,1-a][2]benzazepine-10-carboxylate] | > 500 | > 500
CCn1nnc(C2=Cn3c(c(C4CCCCC4)c4ccc(C(=O)O)cc43)-c3ccccc3C2)n1 [Example 2, 13-cyclohexyl-6-(2-ethyl-2H-tetrazol-5-yl)-5H-indolo[2,1-a][2]benzazepine-10-carboxylic acid] | 1 to 500 | > 500
COC(=O)c1ccc2c(C3CCCCC3)c3n(c2c1)CC(c1nc(CC2CCOCC2)n(C)n1)=Cc1ccccc1-3 [Example 41, 13-cyclohexyl-6-[1-methyl-5-[(tetrahydro-2H-pyran-4-yl)methyl]-1H-1,2,4-triazol-3-yl]-7H-indolo[2,1-a][2]benzazepine-10-carboxylic acid, methyl ester] | > 500 | > 500
CN(C)S(=O)(=O)NC(=O)c1ccc2c(C3CCCCC3)c3n(c2c1)CC(c1ncc(CCC(=O)N2CCOCC2)o1)Cc1ccccc1-3 (stereo not shown) [Example 38, 13-cyclohexyl-N-[(dimethylamino)sulfonyl]-6,7-dihydro-6-[5-[3-(4-morpholinyl)-3-oxopropyl]-2-oxazolyl]-5H-indolo[2,1-a][2]benzazepine-10-carboxamide] | 1 to 500 | 1 to 500
COc1ccc2c(c1)C=C(c1nnn(CC3CCOCC3)n1)Cn1c-2c(C2CCCCC2)c2ccc(C(=O)O)cc21 [Example 16, 13-cyclohexyl-3-methoxy-6-[2-[(tetrahydro-2H-pyran-4-yl)methyl]-2H-tetrazol-5-yl]-7H-indolo[2,1-a][2]benzazepine-10-carboxylic acid] | 1 to 500 | > 500
O=C(O)c1ccc2c(C3CCCCC3)c3n(c2c1)CC(c1nnn(CC2CCCO2)n1)=Cc1ccccc1-3 (stereo not shown) [Example 8, 13-cyclohexyl-6-[2-[(tetrahydro-2-furanyl)methyl]-2H-tetrazol-5-yl]-5H-indolo[2,1-a][2]benzazepine-10-carboxylic acid] | 1 to 500 | > 500
CN(C)S(=O)(=O)NC(=O)c1ccc2c(C3CCCCC3)c3n(c2c1)CC(c1nc(CS(C)(=O)=O)no1)=Cc1ccccc1-3 [Example 28, 13-cyclohexyl-N-[(dimethylamino)sulfonyl]-6-[3-[(methylsulfonyl)methyl]-1,2,4-oxadiazol-5-yl]-7H-indolo[2,1-a][2]benzazepine-10-carboxamide] | 1 to 500 | > 500
COC(=O)CCc1cnc(C2=Cc3cc(OC)ccc3-c3c(C4CCCCC4)c4ccc(C(=O)OC)cc4n3C2)o1 [Example 46, Methyl 13-cyclohexyl-3-methoxy-6-(5-(3-methoxy-3-oxopropyl)-1,3-oxazol-2-yl)-7H-indolo[2,1-a][2]benzazepine-10-carboxylate] | > 500 | > 500
COC(=O)c1ccc2c(C3CCCCC3)c3n(c2c1)CC(c1ncc(CCC(=O)N2CCOCC2)o1)Cc1cc(OC)ccc1-3 (stereo not shown) [Example 49, Methyl 13-cyclohexyl-3-methoxy-6-(5-(3-(4-morpholinyl)-3-oxopropyl)-1,3-oxazol-2-yl)-6,7-dihydro-5H-indolo[2,1-a][2]benzazepine-10-carboxylate] | > 500 | –
CCn1nnc(C2=Cc3ccccc3-c3c(C4CCCCC4)c4ccc(C(=O)O)cc4n3C2)n1 [Example 3, 13-cyclohexyl-6-(2-ethyl-2H-tetrazol-5-yl)-7H-indolo[2,1-a][2]benzazepine-10-carboxylic acid] | 1 to 500 | > 500
COc1ccc2c(c1)C[C@H](c1ncc(CCC(=O)N3CCOCC3)o1)Cn1c-2c(C2CCCCC2)c2ccc(C(=O)NS(=O)(=O)N(C)C)cc21 (single isomer, unassigned) [Example 54, 13-cyclohexyl-N-((dimethylamino)sulfonyl)-3-methoxy-6-(5-(3-(4-morpholinyl)-3-oxopropyl)-1,3-oxazol-2-yl)-6,7-dihydro-5H-indolo[2,1-a][2]benzazepine-10-carboxamide] | 1 to 500 | 1 to 500
COC(=O)c1ccc2c(C3CCCCC3)c3n(c2c1)CC(c1ncco1)=Cc1cc(OC)ccc1-3 [Example 55, Methyl 13-cyclohexyl-3-methoxy-6-(1,3-oxazol-2-yl)-7H-indolo[2,1-a][2]benzazepine-10-carboxylate] | > 500 | –

Reference: patent publication US7456165B2, “HCV NS5B inhibitors” (Bristol-Myers Squibb Company, priority 2006, dated 2008)
